Test results from patent publication US6599536B1, “Therapy of estrogen-associated disorders” (Novogen Research Pty Ltd, priority 1998, dated 2003).

Columns and labels:
[1] = Plasma and urinary profiles of isoflavones after acute and chronic administration of isoflavone tablets (Promensil composition), HPLC
Method: The plasma and urinary profiles of isoflavones after acute and chronic administration of […] of isoflavones (genistein […], daidzein 0.5 mg, biochanin […], and formononetin 14 mg) in fourteen subjects was analysed. The composition corresponds to the Promensil product (Registered Trade Mark, Novogen Research Pty Ltd, Australia). Venous plasma and urine were collected at intervals for 24 h after which subjects commenced taking two tablets each day for two weeks and repeated plasma samples and urine were collected for a 48 h period after the last does. Plasma and urine isoflavones were assayed by HPLC.

[2] = test system: human estrogen receptor (hER); conditions: cited from earlier work
[3] = test system: cancer; conditions: cited from earlier work

Compound: COc1ccc(-c2coc3cc(O)ccc3c2=O)cc1 [formononetin]
- detectability in plasma and urine ([1]; in vivo): remained detectable in both plasma and urine at all times

Compound: O=c1c(-c2ccc(O)cc2)coc2cc(O)cc(O)c12 [genistein]
- estrogenic potency relative to daidzein [2]: approximately ten fold more estrogenic than daidzein
- plasma concentrations relative to the methylated precursors ([1]; after acute dosing of the isoflavone tablets): much higher concentrations than their methylated precursors
- anti-cancer actions [3]: potent anti-cancer actions

Compound: O=c1c(-c2ccc(O)cc2)coc2cc(O)ccc12 [daidzein]
- plasma concentrations relative to the methylated precursors ([1]; in vivo): much higher concentrations than their methylated precursors
- anti-cancer actions [3]: virtually none

Compound: COc1ccc(-c2coc3cc(O)cc(O)c3c2=O)cc1 [biochanin]
- binding affinity for the hER compared to daidzein [2]: lower binding affinity
- estrogenic potency relative to daidzein [2]: about the same estrogenic potency as daidzein
- detectability in plasma and urine ([1]; in vivo): remained detectable in both plasma and urine at all times
